Laboratory results taken from ChEMBL document CHEMBL1145464, “Modeling the combination of amphotericin B, micafungin, and nikkomycin Z against Aspergillus fumigatus in vitro using a novel response surface paradigm” (2007).
Converted amounts (≈) assume the structure as drawn. *1 amine or outer side, *2 acyl side, *3 side chain or, on linkers, in order; H or OH if unused. Where a SMILES comes first, the peptide text is derived from it. Bridges are numbered along the chain shown (N, C = ends). [ ]: non-standard residue; d: D form. The star is where a group is joined. hTyr(3S-OH,4S-OH,3'-OSO3H) = N[C@H](C(=O)O)[C@H](O)[C@@H](O)c1ccc(O)c(OS(=O)(=O)O)c1; Orn(4R-OH,5R-OH) = O=C([C@H](C[C@@H](O)[C@@H](O)N[*:3])N[*:1])[*:2]; Pro(3S-OH,4S-Me) = C[C@H]1CN[C@H](C(=O)O)[C@H]1O; X1 = CCCCCOc1ccc(-c2cc(-c3ccc(C(=O)*)cc3)no2)cc1; Gln(3R-OH) = NC(=O)C[C@@H](O)[C@H](N)C(=O)O; Hyp = O=C(O)[C@@H]1C[C@@H](O)CN1

Assays:
[1] = test system: Aspergillus fumigatus; experiment: Antifungal activity against Aspergillus fumigatus isolate after 24 hrs by CLSI method
[2] = test system: Aspergillus fumigatus; experiment: Antifungal activity against Aspergillus fumigatus isolate after 48 hrs by CLSI method

MIC [1] [µg/mL] | MIC [2] [µg/mL] | Compound
≤ 0.03 | ≤ 0.03 | CCCCCOc1ccc(-c2cc(-c3ccc(C(=O)N[C@H]4C[C@@H](O)[C@@H](O)NC(=O)[C@@H]5[C@@H](O)[C@@H](C)CN5C(=O)[C@H]([C@H](O)CC(N)=O)NC(=O)[C@H]([C@H](O)[C@@H](O)c5ccc(O)c(OS(=O)(=O)O)c5)NC(=O)[C@@H]5C[C@@H](O)CN5C(=O)[C@H]([C@@H](C)O)NC4=O)cc3)no2)cc1 [MICAFUNGIN] (X1-[Orn(4R-OH,5R-OH)]T[Hyp][hTyr(3S-OH,4S-OH,3'-OSO3H)][Gln(3R-OH)][Pro(3S-OH,4S-Me)]; lactam 1-C)
64 (≈ 129 µM) | 128 (≈ 258 µM) | C[C@@H]([C@H](N)C(=O)N[C@H](C(=O)O)[C@H]1O[C@@H](n2ccc(=O)[nH]c2=O)[C@H](O)[C@@H]1O)[C@H](O)c1ccc(O)cn1 [NIKKOMYCIN]

Compound | MIC [1] [µg/mL] | MIC [2] [µg/mL]
C[C@@H]1[C@H](O)[C@@H](C)/C=C/C=C/C=C/C=C/C=C/C=C/C=C/[C@H](O[C@@H]2O[C@H](C)[C@@H](O)[C@H](N)[C@@H]2O)C[C@@H]2O[C@](O)(C[C@@H](O)C[C@@H](O)[C@H](O)CC[C@@H](O)C[C@@H](O)CC(=O)O[C@H]1C)C[C@H](O)[C@H]2C(=O)O (stereo in doubt) [AMPHOTERICIN B] | 0.5 (≈ 0.541 µM) | 0.5 (≈ 0.541 µM)
